Patent US12514861B2, “Targeting DNA-PKCS and B7-H1 to treat cancer” (Mayo Foundation for Medical Education and Research, priority 2014, dated 2026)
pIC50: −log10 of the molar value. Where two headings read alike, the source gives them in different places.

Assays:
B7-H1/624mel cells [1] = experiment: MTS tumor cell survival assay; format: cell-based; conditions: for drug resistance of B7-H1/624mel cells compared with Mock/624mel cells (tumor cell survival): varying drug concentrations, 72 hours of culture, MTS assay
Method: (§7) Cells were pre-treated with DMSO or NU7026 (10 uM) for 1 hour before treatment with doxorubicin (Dox). The relative survival of tumor cells was measured by MTS assay 72 hours after Dox treatment.
Experiments were conducted to test whether B7-H1-expressing tumors would show resistance to drugs that cause DNA damage. Along with cisplatin, which crosslinks DNA, doxorubicin (a topoisomerase II inhibitor that leads to generation of free radicals) and SN38 (a topoisomerase I inhibitor) were tested. Drug sensitivity in B7-H1- and Mock-transfected 624mel melanoma cells was examined in cultures with varying concentrations of the drugs. After 72 hours of culture, tumor cell survival was measured with a MTS assay (Pei et al., Cancer Cell 16:259-266, 2009).
(§8) To test whether the association of B7-H1 with DNA-PKcs is a mechanism of drug resistance, the effects of NU7026 on drug sensitivity of B7-H1- or Mock-transfected 624mel cells were tested. […] Using the same dose (10 uM) of NU7026, experiments were conducted to determine whether NU7026 would affect the drug sensitivity of B7-H1/624mel cells.

Mock/624mel cells = experiment: MTS tumor cell survival assay; format: cell-based; conditions: pretreatment with 10 uM NU7026 for 1 hour, MTS 72 hours after Dox
Method: as §7, §8

[2] = test system: ERK1/2 activation in B7-H1/624mel cells; experiment: Intracellular flow cytometry for phospho-ERK1/2; format: cell-based; conditions: 10 uM, 24 hours
Method: (§1) FIG. 9 is a series of graphs plotting the levels of phosphorylated ERK (top graphs) and total ERK (bottom graphs) in Mock/624mel (left) and B7-H1/624mel (right) tumor cells treated with DMSO or NU7026. Cells were treated with DMSO or NU7026 (10 uM) for 24 hours before intracellular staining for phospho-ERK or total ERK. Numbers are MFI. Inhibition of DNA-PKcs reduced ERK activation, as indicated in the diagram on the right.
(§2) To test the role of DNA-PKcs in activation of the MAPK signal cascade, tumor cells were treated with NU7026, a DNA-PKcs specific inhibitor. […] As a mechanism of action of ERK1/2 in drug resistance, ERK1/2 phosphorylates Bim and enhances degradation of Bim in tumor cells (Gillings, et al., FEBS J 276:6050-6062, 2009; and Luciano et al., Oncogene 22:6785-6793, 2003).

[3] = test system: ERK1/2 activation in Mock/624mel cells; experiment: Intracellular flow cytometry for phospho-ERK1/2; format: cell-based; conditions: 10 uM, 24 hours
Method: as §1, §2

[4] = target: T1, association of B7-H1 with DNA-PKcs (Homo sapiens, UniProt P78527); experiment: Immuno-precipitation assay of B7-H1 association with DNA-PKcs; format: cell-based; conditions: B7-H1 positive human breast cancer cells (MBA-MD-231)
T1 construct: B7-H1 positive human breast cancer cells (MBA-MD-231) were used; endogenous in cells; host or cells: MDA-MB-231 human breast cancer cells
Method: (§3) MBA-MD-231 human breast cancer cells, which are positive for B7-H1, were incubated with NU7026, an inhibitor of DNA-PKCs. […] FIG. 15B is a series of pictures from an immunofluorescence assay in which the cells treated with doxorubicin, NU7026, or both, and stained for DNA-PKcs, DNA, or B7-H1. Doxorubicin-induced co-localization (arrow, upper right panel) of B7-H1 and DNA-PKcs at the nucleus was blocked by NU7026 (lower right panel).
(§4) B7-H1 positive human breast cancer cells (MBA-MD-231) were used to examine the association of DNA-PKcs and B7-H1.

[5] = target: T2, co-localization of B7-H1 and DNA-PKcs at the nucleus (Homo sapiens, UniProt P78527); experiment: Immunofluorescence staining of B7-H1 and DNA-PKcs co-localization; format: cell-based
T2 construct: B7-H1 positive human breast cancer cells (MBA-MD-231) were used; endogenous in cells; host or cells: MDA-MB-231 human breast cancer cells
Method: FIG. 6 is a series of pictures showing co-localization of B7-H1 and DNA-PKcs. A human breast tumor cell line (MDA-MB-231) was treated with doxorubicin (2 ug/ml) for 2 hours. […] Arrows or arrowheads indicate B7-H1 in plasma or in nuclei, respectively.
as §3
B7-H1 undergoes redistribution from the cell surface into the nucleus in human breast tumor cells upon treatment with the cytotoxic drug, doxorubicin (Ghebeh et al., supra).
as §4

DNA-PKcs = DNA-PKcs (Homo sapiens, UniProt P78527); conditions: cited from earlier work
PI3K = conditions: read-out: IC50 for inhibition of PI3K; cited from earlier work
B7-H1/624mel cells [6] = experiment: Apoptosis by Annexin V binding and TMRE staining; format: cell-based; conditions: doxorubicin 1.5 ug/ml, 48 hr
From the text: (§5) FIG. 1A is a series of graphs plotting relative survival of Mock/624mel (triangles) and B7-H1/624mel (squares) cells treated with the indicated drugs, as determined by MTS (3-(4,5-dimethylthiazol-2-yl)-5-(3-carboxymethoxyphenyl)-2-(4-sulfophenyl)-2H-tetrazolium) assay. The p-value for area under the curve (dose-response curves) was significant (p<0.01) for treatment with cisplatin (left), doxorubicin (center), and SN38 (right). One of three experiments is shown. Apoptosis of tumor cells treated with doxorubicin (1.5 ug/ml, 48 hr.) was analyzed by tetramethylrhodamine ethyl ester (TMRE) and Annexin V staining (FIG. 1), and by intracellular staining for active caspase-3 (FIG. 1C). Numbers are percentages of gated population.
(§6) Experiments were conducted to test whether B7-H1-expressing tumors would show resistance to drugs that cause DNA damage. […] After 72 hours of culture, tumor cell survival was measured with a MTS assay (Pei et al., Cancer Cell 16:259-266, 2009). […] Since a mechanism of action of most cytotoxic drugs is to induce apoptosis (Sedletska et al., Curr Med Chem Anti-cancer Agents 5:251-265, 2005; and Wang et al., J Biol Chem 279:25535-25543, 2004), apoptosis of B7-H1/624mel and Mock/624mel tumor cells was measured and compared after treatment with doxorubicin. […]

B7-H1/624mel cells [7] = experiment: Intracellular staining for active caspase-3; format: cell-based; conditions: doxorubicin 1.5 ug/ml, 48 hr
From the text: as §5, §6

T2 sequence (P78527 whole entry): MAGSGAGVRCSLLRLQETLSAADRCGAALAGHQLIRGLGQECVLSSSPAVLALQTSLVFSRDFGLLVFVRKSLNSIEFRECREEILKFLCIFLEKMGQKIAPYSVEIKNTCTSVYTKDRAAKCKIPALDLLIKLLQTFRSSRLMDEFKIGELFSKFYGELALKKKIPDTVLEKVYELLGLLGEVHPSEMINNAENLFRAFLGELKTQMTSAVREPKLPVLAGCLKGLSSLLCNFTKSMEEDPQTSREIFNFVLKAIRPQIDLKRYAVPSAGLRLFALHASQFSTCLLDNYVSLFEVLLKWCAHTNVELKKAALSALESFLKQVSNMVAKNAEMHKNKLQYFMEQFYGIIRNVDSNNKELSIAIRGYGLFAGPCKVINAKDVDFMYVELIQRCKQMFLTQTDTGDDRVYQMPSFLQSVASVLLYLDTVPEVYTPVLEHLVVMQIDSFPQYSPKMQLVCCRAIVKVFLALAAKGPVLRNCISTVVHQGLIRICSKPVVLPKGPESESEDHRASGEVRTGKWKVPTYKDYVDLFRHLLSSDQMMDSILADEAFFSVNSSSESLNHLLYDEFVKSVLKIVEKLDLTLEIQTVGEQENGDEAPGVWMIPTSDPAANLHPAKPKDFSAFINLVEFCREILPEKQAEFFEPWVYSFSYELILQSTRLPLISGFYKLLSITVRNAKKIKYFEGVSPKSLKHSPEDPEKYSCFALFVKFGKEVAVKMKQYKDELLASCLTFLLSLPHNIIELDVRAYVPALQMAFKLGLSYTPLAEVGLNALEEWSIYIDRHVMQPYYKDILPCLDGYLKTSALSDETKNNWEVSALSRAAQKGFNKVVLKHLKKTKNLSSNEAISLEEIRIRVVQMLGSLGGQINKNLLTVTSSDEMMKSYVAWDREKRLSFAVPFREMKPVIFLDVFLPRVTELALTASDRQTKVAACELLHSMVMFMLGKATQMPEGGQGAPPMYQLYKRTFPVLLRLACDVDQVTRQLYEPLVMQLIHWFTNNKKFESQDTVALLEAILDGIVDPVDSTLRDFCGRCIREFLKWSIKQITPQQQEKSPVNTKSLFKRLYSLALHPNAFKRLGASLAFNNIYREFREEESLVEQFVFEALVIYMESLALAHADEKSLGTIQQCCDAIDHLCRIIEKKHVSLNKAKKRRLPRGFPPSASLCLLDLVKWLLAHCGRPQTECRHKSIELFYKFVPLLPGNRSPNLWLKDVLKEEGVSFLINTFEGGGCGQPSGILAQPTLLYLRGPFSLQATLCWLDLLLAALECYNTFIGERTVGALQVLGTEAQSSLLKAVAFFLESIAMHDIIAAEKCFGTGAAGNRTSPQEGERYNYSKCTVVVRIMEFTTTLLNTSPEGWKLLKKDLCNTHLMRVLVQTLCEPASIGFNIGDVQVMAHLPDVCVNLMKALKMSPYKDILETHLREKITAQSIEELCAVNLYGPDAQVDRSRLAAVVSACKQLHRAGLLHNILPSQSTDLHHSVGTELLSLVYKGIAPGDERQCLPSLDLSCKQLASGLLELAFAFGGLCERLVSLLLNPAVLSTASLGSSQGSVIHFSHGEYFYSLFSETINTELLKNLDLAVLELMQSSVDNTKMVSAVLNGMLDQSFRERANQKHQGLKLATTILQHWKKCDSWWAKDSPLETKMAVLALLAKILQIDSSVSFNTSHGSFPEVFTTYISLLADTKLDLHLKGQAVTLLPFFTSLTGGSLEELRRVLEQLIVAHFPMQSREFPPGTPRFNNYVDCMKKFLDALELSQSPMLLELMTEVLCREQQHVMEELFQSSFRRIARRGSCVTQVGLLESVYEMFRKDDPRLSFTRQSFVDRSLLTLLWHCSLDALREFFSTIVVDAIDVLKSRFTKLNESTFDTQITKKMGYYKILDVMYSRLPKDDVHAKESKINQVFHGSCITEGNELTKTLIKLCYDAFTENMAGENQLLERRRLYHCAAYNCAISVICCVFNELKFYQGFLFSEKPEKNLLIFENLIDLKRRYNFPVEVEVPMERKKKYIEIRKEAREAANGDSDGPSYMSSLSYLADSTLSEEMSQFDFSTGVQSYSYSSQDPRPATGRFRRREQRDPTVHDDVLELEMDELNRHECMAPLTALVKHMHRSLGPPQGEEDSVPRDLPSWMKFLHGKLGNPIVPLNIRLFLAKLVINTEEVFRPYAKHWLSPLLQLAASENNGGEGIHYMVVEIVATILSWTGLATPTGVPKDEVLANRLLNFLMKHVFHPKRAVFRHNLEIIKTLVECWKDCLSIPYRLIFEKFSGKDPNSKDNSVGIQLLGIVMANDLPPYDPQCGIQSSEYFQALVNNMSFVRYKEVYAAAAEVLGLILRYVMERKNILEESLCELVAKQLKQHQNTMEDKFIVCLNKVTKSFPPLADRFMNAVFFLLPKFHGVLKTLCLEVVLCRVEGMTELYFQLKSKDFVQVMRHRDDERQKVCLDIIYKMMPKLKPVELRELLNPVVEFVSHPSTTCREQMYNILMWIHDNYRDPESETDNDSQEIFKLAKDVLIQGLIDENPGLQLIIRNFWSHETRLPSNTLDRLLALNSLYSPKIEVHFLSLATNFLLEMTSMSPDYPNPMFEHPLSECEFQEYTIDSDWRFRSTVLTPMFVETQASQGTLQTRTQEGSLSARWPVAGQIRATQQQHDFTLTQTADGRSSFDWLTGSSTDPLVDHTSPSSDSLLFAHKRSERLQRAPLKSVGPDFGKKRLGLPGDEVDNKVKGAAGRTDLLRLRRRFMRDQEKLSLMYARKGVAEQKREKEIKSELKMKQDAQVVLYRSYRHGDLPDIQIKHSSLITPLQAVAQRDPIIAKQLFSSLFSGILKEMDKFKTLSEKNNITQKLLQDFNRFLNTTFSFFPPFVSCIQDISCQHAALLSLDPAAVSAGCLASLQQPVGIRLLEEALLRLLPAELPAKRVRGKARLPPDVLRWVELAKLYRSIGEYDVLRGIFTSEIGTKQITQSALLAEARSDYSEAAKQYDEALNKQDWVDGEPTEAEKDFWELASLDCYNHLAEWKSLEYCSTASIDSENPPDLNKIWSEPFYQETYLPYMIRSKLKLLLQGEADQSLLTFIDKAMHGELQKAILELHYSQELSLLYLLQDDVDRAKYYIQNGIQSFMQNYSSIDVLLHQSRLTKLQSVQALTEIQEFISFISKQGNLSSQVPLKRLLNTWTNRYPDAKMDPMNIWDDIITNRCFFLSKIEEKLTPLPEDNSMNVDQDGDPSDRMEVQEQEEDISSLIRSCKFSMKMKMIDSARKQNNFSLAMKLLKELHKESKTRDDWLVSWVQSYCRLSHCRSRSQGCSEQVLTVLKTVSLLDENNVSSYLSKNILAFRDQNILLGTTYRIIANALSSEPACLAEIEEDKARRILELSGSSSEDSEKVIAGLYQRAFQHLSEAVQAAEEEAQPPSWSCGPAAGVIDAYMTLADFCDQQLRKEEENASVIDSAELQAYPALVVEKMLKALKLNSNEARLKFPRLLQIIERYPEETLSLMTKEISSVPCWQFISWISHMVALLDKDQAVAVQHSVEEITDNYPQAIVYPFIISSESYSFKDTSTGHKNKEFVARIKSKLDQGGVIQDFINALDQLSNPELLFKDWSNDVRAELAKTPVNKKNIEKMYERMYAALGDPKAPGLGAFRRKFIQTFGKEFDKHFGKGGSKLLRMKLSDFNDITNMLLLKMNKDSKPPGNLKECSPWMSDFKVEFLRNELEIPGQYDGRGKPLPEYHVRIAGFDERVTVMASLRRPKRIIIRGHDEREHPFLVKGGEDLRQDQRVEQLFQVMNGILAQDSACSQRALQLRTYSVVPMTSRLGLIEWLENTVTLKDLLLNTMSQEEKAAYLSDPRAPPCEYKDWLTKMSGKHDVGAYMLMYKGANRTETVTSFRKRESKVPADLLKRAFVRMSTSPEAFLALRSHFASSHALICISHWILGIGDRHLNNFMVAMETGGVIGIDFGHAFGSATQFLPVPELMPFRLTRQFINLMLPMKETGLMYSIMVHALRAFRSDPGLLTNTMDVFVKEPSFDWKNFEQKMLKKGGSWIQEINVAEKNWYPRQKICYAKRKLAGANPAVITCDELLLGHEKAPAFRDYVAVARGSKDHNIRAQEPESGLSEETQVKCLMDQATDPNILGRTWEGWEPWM
T1 sequence (P78527 whole entry): as above

For `O=c1cc(N2CCOCC2)oc2c1ccc1ccccc12` [NU7026], the “effect on resistance of B7-H1/624mel cells to doxorubicin” value (B7-H1/624mel cells [1]; pretreatment with 10 uM NU7026 for 1 hour, MTS 72 hours after Dox) was “lost their resistance to doxorubicin”, the “effect on drug sensitivity of Mock/624mel cells” value (Mock/624mel cells) was “increased the drug sensitivity” and the “decrease of activation of ERK1/2 (phospho-ERK)” value [2] was roughly 2 fold. For the same compound, the “decrease of activation of ERK1/2 (phospho-ERK)” value [3] was “not”, the “effect on association of B7-H1 with DNA-PKcs” value [4] was “abolished” and the “effect on doxorubicin-induced co-localization of B7-H1 and DNA-PKcs at the nucleus” value ([5]; MBA-MD-231 cells, 1 μM NU7026) was “blocked”. For the same compound, the “inhibition of DNA-PKcs activity” value (DNA-PKcs; 10 uM) was “completely inhibits”, the pIC50 (DNA-PKcs; read-out: IC50 for inhibiting DNA-PKcs activity) was 6.64 and the pIC50 (DNA-PKcs; read-out: IC50 to inhibit DNA-PKcs) was 6.64. For the same compound, the pIC50 (PI3K) was 4.89.
For `CCc1c2c(nc3ccc(O)cc13)-c1cc3c(c(=O)n1C2)COC(=O)[C@]3(O)CC` [SN38], the “drug resistance of B7-H1/624mel cells compared with Mock/624mel cells (tumor cell survival)” value (B7-H1/624mel cells [1]) was “more resistant”.
In the case of `N.N.[Cl][Pt][Cl]` [cisplatin], the “drug resistance of B7-H1/624mel cells compared with Mock/624mel cells (tumor cell survival)” value (B7-H1/624mel cells [1]) was “more resistant”.
In the case of `COc1cccc2c1C(=O)c1c(O)c3c(c(O)c1C2=O)C[C@@](O)(C(=O)CO)C[C@@H]3O[C@H]1C[C@H](N)[C@H](O)[C@H](C)O1` [doxorubicin], the “drug resistance of B7-H1/624mel cells compared with Mock/624mel cells (tumor cell survival)” value (B7-H1/624mel cells [1]) was “more resistant”, the “apoptosis in B7-H1/624mel cells compared to Mock/624mel cells (fold less)” value (B7-H1/624mel cells [6]) was 5 fold and the “level of active caspase-3 in B7-H1/624mel cells compared with Mock/624mel cells” value (B7-H1/624mel cells [7]) was “lower”. The “localization of B7-H1 and DNA-PKcs after treatment with cytotoxic drug” value ([5]; MDA-MB-231 cells, doxorubicin 2 ug/ml, 2 hours) was “co-localization of B7-H1 and DNA-PKcs was observed in the nuclei”.
